Assay results published in US20080227635A1, “Dicyano Alkanoic Acid Amides for Combating Animal Pests” (BASF Aktiengesellschaft, priority 2005, published 2008).

Assays:
Assay type in all cases: in vivo
[1] = tested on: Vetch aphid (Megoura viciae); assay: Activity against Vetch aphid (sprayed bean leaf disks); conditions: foliar, 144 h, 2500 ppm solution in 1:3 DMSO:water, leaf disks sprayed with 2.5 μl, adult aphids, 6 days, untreated controls 0%
Procedure: 4. Activity against Vetch aphid (Megoura viciae)
The active compounds were formulated as a 2500 ppm solution in 1:3 DMSO:water. Bean leaf disks were placed into microtiterplates filled with 0.8% agar-agar and 2.5 ppm OPUS™. The leaf disks were sprayed with 2.5 μl of the test solution and 5 to 8 adult aphids were placed into the microtiterplates which were then closed and kept at 22-24° C. and 35-45% under fluorescent light for 6 days. Mortality was assessed on the basis of vital, reproduced aphids. Tests were replicated 2 times.

[2] = tested on: Boll weevil (Anthonomus grandis); assay: Activity against Boll weevil (eggs sprayed in microtiterplates); conditions: 2500 ppm solution in 1:3 DMSO:water, eggs sprayed with 20 μl, 3 to 5 days, untreated controls 0%
Procedure: 1. Activity against Boll weevil (Anthonomus grandis)
The active compounds were formulated as a 2500 ppm solution in 1:3 DMSO:water. 10 to 15 eggs were placed into microtiterplates filled with 2% agar-agar in water and 300 ppm formaline. The eggs were sprayed with 20 μl of the test solution, the plates were sealed with pierced foils and kept at 24-26° C. and 75-85% humidity with a day/night cycle for 3 to 5 days. Mortality was assessed on the basis of the remaining unhatched eggs or larvae on the agar surface and/or quantity and depth of the digging channels caused by the hatched larvae. Tests were replicated 2 times.

[3] = tested on: yellowfever mosquito (Aedes aegyptii); assay: Activity via glass contact (treated glass vials); conditions: 10 ppm in acetone, 0.5 ml per glass vial, 22° C., untreated controls 0%
Excerpt: 9. Activity against Argentine ant (Linepithema humile), harvester ant (Pogonomyrmex californicus), acrobat ant (Crematogaster spp.), carpenter ant (Camponotus floridanus), fire ant (Solenopsis invicta), house fly (Musca domestica), stable fly (Stomoxys calcitrans), flesh fly (Sarcophaga sp.), yellowfever mosquito (Aedes aegyptii), house mosquito (Culex quinquefasciatus), malaria mosquito (Anopheles albimanus), German cockroach (Blattella Germanica), cat flea (Ctenocephalides felis), and brown dog tick (Rhipicephalus sanguineus) via glass contact
Glass vials were treated with 0.5 ml of a solution of 10 ppm of the active ingredient in acetone and allowed to dry. Insects or ticks were placed into each vial together with some food and moisture supply.

Structure (SMILES) | mortality at 2500 ppm [1] [%] | mortality at 2500 ppm [2] [%] | mortality at 10 ppm [3] [%]
CN(C(=O)CC(C#N)(C#N)CCC(F)(F)F)C(C)(C)C [I-1, 3,3-dicyano-6,6,6-trifluoro-hexanoic acid tert-butyl-methyl-amide] | > 75 | > 75 | –
CN(C(=O)CC(C#N)(C#N)CCC(F)(F)F)C(C)(C)C#N [I-2, 3,3-dicyano-6,6,6-trifluoro-hexanoic acid (cyano-dimethyl-methyl)-methyl-amide] | – | – | > 75
